Assay results: ChEMBL document CHEMBL1135070, “Synthesis of a magnosalin derivative, 4-(3,4,5-trimethoxyphenyl)-6-(2,4,5-trimethoxyphenyl)-2-diethylaminopyrimidine, and the anti-angiogenic and anti-rheumatic effect on mice by oral administration” (Bioorg Med Chem Lett, 2002)

Columns and labels:
Mus musculus [1] = assay: Antirheumatic effect was determined in mice after combined treatment of TAS-202 (30 mg/kg/day) and indomethacin (1 mg/kg/day) at day 14; type: functional
Mus musculus [2] = assay: Antirheumatic effect was determined in mice after oral administration of a dose of 1 mg/kg/day at day 14; type: functional; conditions: 336 h
HUVEC [3] = assay: Anti-proliferative effect on HUVEC induced by vascular endothelial growth factor (VEGF)at 0.3 uM concentration by measuring [3H]thymidine incorporation; type: functional, Homo sapiens
HUVEC [4] = assay: Anti-proliferative effect on human umbilical vein endothelial cells (HUVEC) induced by vascular endothelial growth factor (VEGF) at 1 (uM) concentration; type: functional
HUVEC [5] = assay: Anti-proliferative effect on human umbilical vein endothelial cells (HUVEC) induced by fetal bovine serum (FBS) at 0.1 (uM) concentration; type: functional
HUVEC [6] = assay: Anti-proliferative effect on HUVEC induced by vascular endothelial growth factor (VEGF)at 0 uM concentration by measuring [3H]thymidine incorporation; type: functional, Homo sapiens
HUVEC [7] = assay: Anti-proliferative effect on HUVEC induced by vascular endothelial growth factor (VEGF)at 0.1 uM concentration by measuring [3H]thymidine incorporation; type: functional, Homo sapiens
Homo sapiens [8] = organism: Homo sapiens; assay: Anti-proliferative activity on NHDF induced by fetal bovine serum (FBS) at 0.1 uM concentration by measuring [3H]thymidine incorporation; type: functional
HUVEC [9] = assay: Anti-proliferative effect on HUVEC induced by basic fibroblast growth factor (bFGF)at 0.3 uM concentration by measuring [3H]thymidine incorporation; type: functional, Homo sapiens
Homo sapiens [10] = organism: Homo sapiens; assay: Anti-proliferative activity on normal human dermal fibroblasts (NHDF) induced by fetal bovine serum (FBS) at 0.1 uM concentration; type: functional
[11] = Anti-proliferative activity of KB cells from head and neck cancer cell line induced by fetal bovine serum (FBS) at 0.3 (uM) concentrations for [3H]- thymidine incorporation; type: functional, Homo sapiens, Cancer cell lines
HUVEC [12] = assay: Anti-proliferative effect on human umbilical vein endothelial cells (HUVEC) induced by basic fibroblast growth factor (bFGF) at 0.3 (uM) concentration; type: functional
HUVEC [13] = assay: Anti-proliferative effect on human umbilical vein endothelial cells (HUVEC) induced by ECGS at 1 uM concentration by measuring [3H]thymidine incorporation; type: functional
HUVEC [14] = assay: Anti-proliferative effect on human umbilical vein endothelial cells (HUVEC) induced by basic fibroblast growth factor (bFGF) at 1 (uM) concentration; type: functional
HUVEC [15] = assay: Anti-proliferative effect on human umbilical vein endothelial cells (HUVEC) induced by fetal bovine serum (FBS); type: functional, cell-based
HUVEC [16] = assay: Anti-proliferative effect on HUVEC induced by fetal bovine serum (FBS) at 0 uM concentration by measuring [3H]thymidine incorporation; type: functional, Homo sapiens
[17] = Anti-proliferative activity of KB cells from head and neck cancer cell line induced by fetal bovine serum (FBS) at 0.1 (uM) concentrations for [3H]- thymidine incorporation; type: functional, Homo sapiens, Cancer cell lines
HUVEC [18] = assay: Anti-proliferative effect on human umbilical vein endothelial cells (HUVEC) induced by basic fibroblast growth factor (bFGF); type: functional, cell-based
HUVEC [19] = assay: Anti-proliferative effect on human umbilical vein endothelial cells (HUVEC) induced by ECGS at 0.3 uM concentration by measuring [3H]thymidine incorporation; type: functional
HUVEC [20] = assay: Anti-proliferative effect on human umbilical vein endothelial cells (HUVEC) induced by endothelial cell growth supplement (ECGS) at 0.3 (uM) concentration; type: functional
HUVEC [21] = assay: Anti-proliferative effect on human umbilical vein endothelial cells (HUVEC) induced by vascular endothelial growth factor (VEGF) at 0.1 (uM) concentration; type: functional
HUVEC [22] = assay: Anti-proliferative effect on human umbilical vein endothelial cells (HUVEC) induced by endothelial cell growth supplement (ECGS) at 1 (uM) concentration; type: functional
Mus musculus [23] = assay: Antirheumatic effect was determined in mice after oral administration of a dose of 30 mg/kg/day at day 14; type: functional; conditions: 336 h
HUVEC [24] = assay: Anti-proliferative effect on HUVEC induced by fetal bovine serum (FBS) at 0.3 uM concentration by measuring [3H]thymidine incorporation; type: functional, Homo sapiens
HUVEC [25] = assay: Anti-proliferative effect on human umbilical vein endothelial cells (HUVEC) induced by vascular endothelial growth factor (VEGF) at 0.3 (uM) concentration; type: functional
Homo sapiens [26] = organism: Homo sapiens; assay: Anti-proliferative activity on NHDF induced by fetal bovine serum (FBS) at 0 uM concentration by measuring [3H]thymidine incorporation; type: functional
HUVEC [27] = assay: Anti-proliferative effect on human umbilical vein endothelial cells (HUVEC) induced by basic fibroblast growth factor (bFGF) at 0.1 (uM) concentration; type: functional
[28] = Anti-proliferative activity of KB cells from head and neck cancer cell line induced by fetal bovine serum (FBS) at 0.1 (uM) concentrations for % inhibition; type: functional, Homo sapiens, Cancer cell lines
Homo sapiens [29] = organism: Homo sapiens; assay: Anti-proliferative activity on NHDF induced by fetal bovine serum (FBS) at 1 uM concentration by measuring [3H]thymidine incorporation; type: functional
HUVEC [30] = assay: Anti-proliferative effect on human umbilical vein endothelial cells (HUVEC) induced by fetal bovine serum (FBS) at 0.3 (uM) concentration; type: functional
HUVEC [31] = assay: Anti-proliferative effect on human umbilical vein endothelial cells (HUVEC) induced by ECGS at 0 uM concentration by measuring [3H]thymidine incorporation; type: functional
[32] = Anti-proliferative activity of KB cells from head and neck cancer cell line induced by fetal bovine serum (FBS) at 1 (uM) concentrations for [3H]- thymidine incorporation; type: functional, Homo sapiens, Cancer cell lines
HUVEC [33] = assay: Anti-proliferative effect on HUVEC induced by fetal bovine serum (FBS) at 0.1 uM concentration by measuring [3H]thymidine incorporation; type: functional, Homo sapiens
HUVEC [34] = assay: Anti-proliferative effect on human umbilical vein endothelial cells (HUVEC) induced by ECGS at 0.1 uM concentration by measuring [3H]thymidine incorporation; type: functional
HUVEC [35] = assay: Anti-proliferative effect on HUVEC induced by vascular endothelial growth factor (VEGF)at 1 uM concentration by measuring [3H]thymidine incorporation; type: functional, Homo sapiens
HUVEC [36] = assay: Anti-proliferative effect on HUVEC induced by basic fibroblast growth factor (bFGF)at 1 uM concentration by measuring [3H]thymidine incorporation; type: functional, Homo sapiens
HUVEC [37] = assay: Anti-proliferative effect on human umbilical vein endothelial cells (HUVEC) induced by endothelial cell growth supplement (ECGS); type: functional, cell-based
Homo sapiens [38] = organism: Homo sapiens; assay: Anti-proliferative activity of normal human dermal fibroblasts (NHDF) induced by fetal bovine serum (FBS) at 0.3 uM concentration; type: functional
Homo sapiens [39] = organism: Homo sapiens; assay: Anti-proliferative activity on normal human dermal fibroblasts (NHDF) induced by fetal bovine serum (FBS) at 1 uM concentration; type: functional
[40] = Anti-proliferative activity of KB cells from head and neck cancer cell line induced by fetal bovine serum (FBS) at 1 (uM) concentration for % inhibition; type: functional, Homo sapiens, Cancer cell lines
[41] = Anti-proliferative activity of KB cells from head and neck cancer cell line induced by fetal bovine serum (FBS) at 0 uM concentrations for [3H]thymidine incorporation; type: functional, Homo sapiens, Cancer cell lines
HUVEC [42] = assay: Anti-proliferative effect on HUVEC induced by basic fibroblast growth factor (bFGF)at 0.1 uM concentration by measuring [3H]thymidine incorporation; type: functional, Homo sapiens
HUVEC [43] = assay: Anti-proliferative effect on human umbilical vein endothelial cells (HUVEC) induced by fetal bovine serum (FBS) at 1 uM concentration; type: functional
HUVEC [44] = assay: Anti-proliferative effect on human umbilical vein endothelial cells (HUVEC) induced by vascular endothelial growth factor (VEGF); type: functional, cell-based
[45] = Anti-proliferative activity of KB cells from head and neck cancer cell line induced by fetal bovine serum (FBS) at 0.3 (uM) concentrations for % inhibition; type: functional, Homo sapiens, Cancer cell lines
Homo sapiens [46] = organism: Homo sapiens; assay: Anti-proliferative activity on NHDF induced by fetal bovine serum (FBS) at 0.3 uM concentration by measuring [3H]thymidine incorporation; type: functional
HUVEC [47] = assay: Anti-proliferative effect on HUVEC induced by fetal bovine serum (FBS) at 1 uM concentration by measuring [3H]-thymidine incorporation; type: functional, Homo sapiens
HUVEC [48] = assay: Anti-proliferative effect on HUVEC induced by basic fibroblast growth factor (bFGF)at 0 uM concentration by measuring [3H]thymidine incorporation; type: functional, Homo sapiens

COc1ccc2c(c1)c(CC(=O)O)c(C)n2C(=O)c1ccc(Cl)cc1 [INDOMETHACIN]
Inhibition (Mus musculus [1]): 75%
inhibition in vivo at 1 mg/kg/day (Mus musculus [2]): 22.2%

CCN(CC)c1nc(-c2cc(OC)c(OC)c(OC)c2)cc(-c2cc(OC)c(OC)cc2OC)n1
Activity (HUVEC [3]): 1263.7 c.p.m.
Inhibition (HUVEC [4]): 78.4%
Inhibition (HUVEC [5]): 26.7%
Activity (HUVEC [6]): 2077.3 c.p.m.
Activity (HUVEC [7]): 1861.3 c.p.m.
Activity (Homo sapiens [8]): 1907.7 c.p.m.
Activity (HUVEC [9]): 6927.6 c.p.m.
inhibition at 0.1 µM (Homo sapiens [10]): -2.2%
Activity [11]: 15784.2 c.p.m.
Inhibition (HUVEC [12]): 30.7%
Activity (HUVEC [13]): 359 c.p.m.
Inhibition (HUVEC [14]): 70.3%
IC50 (HUVEC [15]): 199 nM
Activity (HUVEC [16]): 595.9 c.p.m.
Activity [17]: 18961.2 c.p.m.
IC50 (HUVEC [18]): 561 nM
Activity (HUVEC [19]): 994.2 c.p.m.
Inhibition (HUVEC [20]): 64.6%
Inhibition (HUVEC [21]): 10.4%
Inhibition (HUVEC [22]): 87.2%
inhibition in vivo at 30 mg/kg/day (Mus musculus [23]): 32.4%
Activity (HUVEC [24]): 154.2 c.p.m.
Inhibition (HUVEC [25]): 39.2%
Activity (Homo sapiens [26]): 1867.1 c.p.m.
Inhibition (HUVEC [27]): 33.6%
Inhibition [28]: -0.3%
Activity (Homo sapiens [29]): 2133.2 c.p.m.
Inhibition (HUVEC [30]): 74.1%
Activity (HUVEC [31]): 2810.3 c.p.m.
Activity [32]: 13366.5 c.p.m.
Activity (HUVEC [33]): 437 c.p.m.
Activity (HUVEC [34]): 1634.5 c.p.m.
inhibition at 0.1 µM (HUVEC [34]): 41.8%
Activity (HUVEC [35]): 448 c.p.m.
Activity (HUVEC [36]): 2969.9 c.p.m.
IC50 (HUVEC [37]): 148 nM
inhibition at 0.3 µM (Homo sapiens [38]): -18.4%
inhibition at 1 µM (Homo sapiens [39]): -14.3%
Inhibition [40]: 29.3%
Activity [41]: 18896 c.p.m.
Activity (HUVEC [42]): 6638.9 c.p.m.
inhibition at 1 µM (HUVEC [43]): 79.4%
IC50 (HUVEC [44]): 398 nM
Inhibition [45]: 16.5%
Activity (Homo sapiens [46]): 2209.9 c.p.m.
Activity (HUVEC [47]): 122.8 c.p.m.
Activity (HUVEC [48]): 9998.4 c.p.m.
